These results are taken from US20160113940A1, “METHODS OF TREATING BIOFILMS” (BIOMIMETIX J.V., LLC, priority 2013, published 2016).

Data set [1] deals with Biofilm forming Staphylococcus Aureus. As for the experimental part:
A total of 20 C57B5 male mice were randomly divided into four treatment groups after surgery to create an infected femur fracture (midshaft femur fracture fixed with intramedullary 23 g needle and with 10^4 S. aureus added to the fracture site):
2. Antibiotic (Keflex) starting 24 hours post-surgery,
3. SOD mimetic MnTE-2-PyP (starting 24 hours post-surgery,
4. Antibiotic plus MnTE-2-PyP (starting 24 hours post-surgery).
The mice were followed for 2 weeks and received daily access to Keflex in drinking water at […] dose for the antibiotic treated groups and MnTE three time per week (loading dose day 1=5.0 mg/kg SQ, followed by 2.5 mg/kg SQ three times weekly). […] Mice were harvested after 2 weeks and femurs were homogenized in PBS, supernatants were serially diluted and plated to determine cell counts.

Data set [2] concerns Biofilm forming S. aureus. Kind of data set: Inhibition of Staphylococcus aureus biofilm formation in vitro (96 well plates, absorbance at 600 nm). It counts as cell-based. The following applies: established 24 h biofilm, 24 hours further growth after treatment, vs PBS; p<0.0001; FIG. 1. Here is the method:
Biofilm forming S. aureus was grown in 96 well plates for 24 hours to allow a biofilm to form. Wells were allowed to grow an additional 24 hours after being treated with either PBS or SOD mimetic (Mn (III) tetrakis (N-ethylpyridinium-2-yl) porphyrin, or “MnTE-PyP”). Biofilm intensity was measured using absorbance at 600 nm. […] (p<0.0001)

Consider `CC1=C(C(=O)O)N2C(=O)[C@@H](NC(=O)[C@H](N)c3ccccc3)[C@H]2SC1` [Keflex, reference compound], for which the “Fracture healing compared to no treatment” value in data set [1] (infected femur fracture, 2 wks, FIG. 3) was “significantly improved fracture healing”.

`CC[n+]1ccccc1-c1c2nc(c(-c3cccc[n+]3CC)c3ccc([n-]3)c(-c3cccc[n+]3CC)c3nc(c(-c4cccc[n+]4CC)c4ccc1[n-]4)C=C3)C=C2.[Mn+3]` [MnTE-2-PyP, Mn (III) tetrakis (N-ethylpyridinium-2-yl) porphyrin]: the “Biofilm intensity (absorbance at 600 nm)” value in data set [2] is “disrupts established S. aureus biofilms in culture”. Further, the Mortality entry in data set [1] (initial post-operative period, mimetic only group, not felt to be related to the compound) is on record as “one mouse died”.
